Data: US20230363383A1, “COMBINATIONS OF CHLOROACETANILIDE HERBICIDES WITH SAFENERS” (UPL DO BRASIL INDUSTRIA E COMERCIO DE INSUMOS AGROPECUARIOS …, priority 2020, published 2023)
Read-outs that look alike come from different tables or passages of the source.

Assays:
Type in all cases: in vivo
[1] = tested on: wheat crop; details: seed treatment, average of 4 replications
Description: (§1) Mode of application for herbicides was spray and they were applied to soil after sowing of untreated seeds or seeds treated with safeners.
as §1

[2] = tested on: Lolium multiflorum; test: % weed control of Lolium multiflorum, Propisochlor alone or with safener sprayed to soil; design: concentration or dose not given beside the values; details: spray to soil, average of 4 replications; for % Weed Control 7 DAA: 7 days after administration; for % Weed Control 14 DAA: 14 days after administration; for % Weed Control 21 DAA: 21 days after administration; for % Weed Control 28 DAA: 28 days after administration; for % Weed Control 35 DAA: 35 days after administration
Protocol: (§2) Experiments were carried out to evaluate the phytotoxicity, effect on plant height and effect on number of plants standing after treatments with combinations of one or more Chloroacetanilide herbicides with one or more safeners.
Below table gives summary of the formulation details and application details of Propisochlor and Mefenpyr-diethyl, Isoxadifen-ethyl and Cloquintocet-mexyl that were used in combination with Propisochlor for treatments. Application method was spray and applications were made to soil.
Below table gives summary of the formulation details and application details of Propisochlor and Dichlormid, Fenclorim, Benoxacor, Flurazole and Fluxofenim that were used in combination with Propisochlor for treatments. Application method was spray and applications were made to soil.
Below table gives summary of % weed control shown by untreated check, Propisochlor alone and combination of Propisochlor with Mefenpyr-diethyl, Isoxadifen-ethyl and Cloquintocet-mexyl at different application rates. % weed control was checked for weed Lolium multiflorum.
Below table gives summary of % weed control shown by untreated check, Propisochlor alone and combination of Propisochlor with Dichlormid, Fenclorim, Benoxacor, Flurazole and Fluxofenim at different application rates. % weed control was checked for weed Lolium multiflorum.

[3] = tested on: wheat crop; details: spray to soil; for % Phytotoxicity 7 DAA: 7 days after administration; for % Phytotoxicity 7 DAA / % Phytotoxicity 14 DAA / % Phytotoxicity 21 DAA / % Phytotoxicity 28 DAA / % Phytotoxicity 35 DAA: average of 4 replications; for % Phytotoxicity 14 DAA: 14 days after administration; for % Phytotoxicity 21 DAA: 21 days after administration; for % Phytotoxicity 28 DAA: 28 days after administration; for % Phytotoxicity 35 DAA: 35 days after administration; for Plants Standing: untreated check 8.0 (Table 5) / 8.3 (Table 6)
Protocol: as §2
(§3) Application method was spray and applications were made to soil.
as §3

| Structure (SMILES) | % Weed Control 7 DAA [2] [%] | % Weed Control 14 DAA [2] [%] | % Weed Control 21 DAA [2] [%] | % Weed Control 28 DAA [2] [%] | % Weed Control 35 DAA [2] [%] | % Phytotoxicity 7 DAA [3] [%] | % Phytotoxicity 14 DAA [3] [%] | % Phytotoxicity 21 DAA [3] [%] | % Phytotoxicity 28 DAA [3] [%] | % Phytotoxicity 35 DAA [3] [%] | Plants Standing [3] | also measured |
| --- | --- | --- | --- | --- | --- | --- | --- | --- | --- | --- | --- | --- |
| N#Cc1nn(-c2c(Cl)cc(C(F)(F)F)cc2Cl)c(N)c1[S+]([O-])C(F)(F)F (stereo not shown) [Treatment 1b] | – | – | – | – | – | – | – | – | – | – | – | Plant height 15 DAA ([1]; Table 11, wheat crop, 15 DAA): 10.8; Standing Plants 15 DAA ([1]; Table 11, wheat crop, 15 DAA): 22.5; Plant height 29 DAA ([1]; Table 11, wheat crop, 29 DAA): 10.8; Standing Plants 29 DAA ([1]; Table 11, wheat crop, 29 DAA): 33.8; % Phytotoxicity 7 DAA ([1]; wheat crop, Propisochlor sprayed to soil after sowing, 7 DAA): 0%; % Phytotoxicity 14 DAA ([1]; wheat crop, Propisochlor sprayed to soil after sowing, 14 DAA): 0%; % Phytotoxicity 21 DAA ([1]; wheat crop, Propisochlor sprayed to soil after sowing, 21 DAA): 0%; % Phytotoxicity 28 DAA ([1]; wheat crop, Propisochlor sprayed to soil after sowing, 28 DAA): 0%; % Phytotoxicity 35 DAA ([1]; wheat crop, Propisochlor sprayed to soil after sowing, 35 DAA): 0% |
| CCc1cccc(C)c1N(COC(C)C)C(=O)CCl [Treatment 2a] | 100 | 100 | 100 | 100 | 100 | 98.0 | 99.0 | 99.5 | 99.5 | 99.0 | 0.5 | – |
| N#Cc1nn(-c2c(Cl)cc(C(F)(F)F)cc2Cl)c(N)c1[S+]([O-])C(F)(F)F (stereo not shown) [Treatment 9b] | – | – | – | – | – | – | – | – | – | – | – | Plant height 15 DAA ([1]; Table 12, 15 DAA): 23.3; Standing Plants 15 DAA ([1]; Table 12, 15 DAA): 10.8; Plant height 29 DAA ([1]; Table 12, 29 DAA): 34.3; Standing Plants 29 DAA ([1]; Table 12, 29 DAA): 10.8; % Phytotoxicity 8 DAA ([1]; wheat crop, Propisochlor sprayed to soil after sowing, 8 DAA): 0%; % Phytotoxicity 15 DAA ([1]; wheat crop, Propisochlor sprayed to soil after sowing, 15 DAA): 0%; % Phytotoxicity 22 DAA ([1]; wheat crop, Propisochlor sprayed to soil after sowing, 22 DAA): 0%; % Phytotoxicity 29 DAA ([1]; wheat crop, Propisochlor sprayed to soil after sowing, 29 DAA): 0%; % Phytotoxicity 36 DAA ([1]; wheat crop, Propisochlor sprayed to soil after sowing, 36 DAA): 0% |
| CCc1cccc(C)c1N(COC(C)C)C(=O)CCl [Treatment 10a] | 100.0 | 100.0 | 100.0 | 99.3 | 99.0 | 99.5 | 100 | 100 | 100 | 100 | 0.0 | – |
